Patent EP0399909A1, “Cosmetic composition against skin ageing” (ELF SANOFI, priority 1989, dated 1990)

Test system: fibroblastes de peau humaine (ATCC No CRL 1513)
Assay: SAMe formation in cultured human skin fibroblasts with increasing betaine concentrations (HPLC determination)
Assay type: cell-based
Details: for Concentration de SAMe: 6 days culture, control without bétaïne 0,54
Protocol: L'effet exercé par la bétaïne sur la formation de SAMe a été mis en évidence par les résultats obtenus à des concentrations croissantes de bétaïne dans des fibroblastes de peau humaine (ATCC No CRL 1513) en culture. Plus précisément, les cellules (2.10⁴/ml) ont été mises en culture pendant 6 jours dans 250 ml de milieu de culture Dulbecco's Modified Eagle Medium (DMEM) contenant 20 % de sérum de veau foetal, en présence de concentrations croissantes (de 10⁻⁵ M à 5.10⁻⁴ M) de bétaïne. Au terme de la culture, les cellules ont été décollées à la trypsine (0,05 %) et à l'EDTA (0,02 %) et centrifugées. Le surnageant a été récupéré et précipité à l'acide trichloroacétique (0,2 N, v/v) puis centrifugé à nouveau. Le surnageant a été ensuite récupéré et lyophylisé. Les lyophylisats ont été repris avec de l'eau et analysés en HPLC (Colonne : Nucléosyl C8; Eluant : Solvant A (acétate de sodium 8,2 g; octylsulfonate de sodium 200 mg; acide citrique 4,2 g; EDTA 50 mg; eau q.s. pour 1 litre) 95 % et Solvant B (méthanol) 5 %) en utilisant un détecteur à 260 nm. La quantité de SAMe a été déterminée d'après une gamme étalon traitée dans les mêmes conditions expérimentales.

What does the source list for C[N+](C)(C)CC(=O)[O-] [bétaïne, (CH₃)₃N⁺-CH₂-COO⁻]?
Concentration de SAMe (Concentration de bétaïne 1 (10⁻⁵ M)): 0,62 nMoles/10⁷ cellules; Concentration de SAMe (Concentration de bétaïne 5 (10⁻⁵ M)): 0,94 nMoles/10⁷ cellules; Concentration de SAMe (Concentration de bétaïne 10 (10⁻⁵ M)): 1,72 nMoles/10⁷ cellules; Concentration de SAMe (Concentration de bétaïne 50 (10⁻⁵ M)): 1,90 nMoles/10⁷ cellules; quantité d'adémétionine des fibroblastes de peau humaine (in vitro, even at very low concentrations): agit significativement
